# Data reported in article PMC4303209, “A novel phosphatidylinositol 3-kinase (PI3K) inhibitor directs a potent FOXO-dependent, p53-independent cell cycle arrest phenotype characterized by the differential induction of a subset of FOXO-regulated genes” (Breast Cancer Research : BCR, 2014).
# Tested on: MCF-7 breast cancer cells
# Assay: Microarray gene expression analysis (Agilent whole human genome 4 x 44K; compound vs DMSO, LIMMA log2 fold change)
# Type: cell-based
structure (smiles),measurement,setting,value
Oc1cccc(-c2nc(N3CCOCC3)c3oc4ncccc4c3n2)c1 [PI-103],EYA1 log2FC,"gene EYA1 (2138), apoptosis genes",0.027
same,log2FC EYA1,"gene EYA1 (Gene 2138), cell cycle genes",0.027
same,FABP1 log2FC,"gene FABP1 (2168), apoptosis genes",-0.014
same,FAIM2 log2FC,"gene FAIM2 (23017), apoptosis genes",0.077
same,FAM3B log2FC,"gene FAM3B (54097), apoptosis genes",-0.110
same,FAM32A log2FC,"gene FAM32A (26017), apoptosis genes",-0.300
same,log2FC FAM32A,"gene FAM32A (Gene 26017), cell cycle genes",-0.30
same,log2FC,"gene FAM58A (Gene 92002), cell cycle genes",0.17
same,FAS log2FC,"gene FAS (355), apoptosis genes",-0.278
same,log2FC,"gene FBXL15 (Gene 79176), cell cycle genes",0.25
same,log2FC FGFR1OP,"gene FGFR1OP (Gene 11116), cell cycle genes",-0.20
same,FIS1 log2FC,"gene FIS1 (51024), apoptosis genes",0.161
same,FKSG2 log2FC,"gene FKSG2 (59347), apoptosis genes",-0.076
same,log2FC,"gene FMN2 (Gene 56776), cell cycle genes",0.00262
same,FOXB1 log2FC,"gene FOXB1 (27023), apoptosis genes",-0.433
same,log2FC,"gene FSD1 (Gene 79187), cell cycle genes",-0.09
same,GADD45G log2FC,"gene GADD45G (10912), apoptosis genes",-0.195
same,GAPDH log2FC,"gene GAPDH (2597), apoptosis genes",0.013
same,log2FC,"gene GAS2L1 (Gene 10634), cell cycle genes",-0.26
same,log2FC GAS2L2,"gene GAS2L2 (Gene 246176), cell cycle genes",-0.00222
same,GAS6 log2FC,"gene GAS6 (2621), apoptosis genes",-0.103
same,GATA6 log2FC,"gene GATA6 (2627), apoptosis genes",0.052
same,log2FC GATA6,"gene GATA6 (Gene 2627), cell cycle genes",0.05
same,GCG log2FC,"gene GCG (2641), apoptosis genes",0.035
same,GCLM log2FC,"gene GCLM (2730), apoptosis genes",-0.246
same,GCM2 log2FC,"gene GCM2 (9247), apoptosis genes",-0.063
same,log2FC,"gene GEM (Gene 2669), cell cycle genes",0.84
same,GFRAL log2FC,"gene GFRAL (389400), apoptosis genes",-0.028
same,GHRL log2FC,"gene GHRL (51738), apoptosis genes",-0.060
same,GIMAP5 log2FC,"gene GIMAP5 (55340), apoptosis genes",0.028
same,GJB6 log2FC,"gene GJB6 (10804), apoptosis genes",0.090
same,log2FC,"gene GOLGA2 (Gene 2801), cell cycle genes",0.24
same,log2FC,"gene GORASP1 (Gene 64689), cell cycle genes",0.05
same,log2FC,"gene GORASP2 (Gene 26003), cell cycle genes",-0.48
same,GPI log2FC,"gene GPI (2821), apoptosis genes",0.047
same,GPR65 log2FC,"gene GPR65 (8477), apoptosis genes",-0.016
same,GRK1 log2FC,"gene GRK1 (6011), apoptosis genes",-0.053
same,log2FC,"gene GTPBP8 (Gene 29083), cell cycle genes",0.10
same,log2FC,"gene GTSE1 (Gene 51512), cell cycle genes",-0.33
same,log2FC H1FOO,"gene H1FOO (Gene 132243), cell cycle genes",0.05
same,HCLS1 log2FC,"gene HCLS1 (3059), apoptosis genes",0.112
same,log2FC,"gene HELLS (Gene 3070), cell cycle genes",0.14
same,HIPK3 log2FC,"gene HIPK3 (10114), apoptosis genes",-0.044
same,log2FC HORMAD2,"gene HORMAD2 (Gene 150280), cell cycle genes",0.09
same,log2FC HPGD,"gene HPGD (Gene 3248), cell cycle genes",0.065
same,HPN log2FC,"gene HPN (3249), apoptosis genes",-0.076
same,HTRA2 log2FC,"gene HTRA2 (27429), apoptosis genes",0.078
same,log2FC HTRA2,"gene HTRA2 (Gene 27429), cell cycle genes",0.08
same,IFI6 log2FC,"gene IFI6 (2537), apoptosis genes",0.0043
same,IFNA2 log2FC,"gene IFNA2 (3440), apoptosis genes",0.014
same,IFNB1 log2FC,"gene IFNB1 (3456), apoptosis genes",0.022
same,IL1A log2FC,"gene IL1A (3552), apoptosis genes",-0.067
same,IL2RA log2FC,"gene IL2RA (3559), apoptosis genes",-0.038
same,IL2RB log2FC,"gene IL2RB (3560), apoptosis genes",-0.066
same,IL12A log2FC,"gene IL12A (3592), apoptosis genes",-0.262
same,log2FC IL12A,"gene IL12A (Gene 3592), cell cycle genes",-0.26
same,IL12B log2FC,"gene IL12B (3593), apoptosis genes",-0.023
same,IL17A log2FC,"gene IL17A (3605), apoptosis genes",0.037
same,IL19 log2FC,"gene IL19 (29949), apoptosis genes",-0.032
same,ILK log2FC,"gene ILK (3611), apoptosis genes",-0.047
same,log2FC ILKAP,"gene ILKAP (Gene 80895), cell cycle genes",-0.08
same,INSL6 log2FC,"gene INSL6 (11172), apoptosis genes",0.047
same,ISL1 log2FC,"gene ISL1 (3670), apoptosis genes",-0.142
same,ITGA6 log2FC,"gene ITGA6 (3655), apoptosis genes",-0.139
same,ITGB2 log2FC,"gene ITGB2 (3689), apoptosis genes",0.148
same,ITM2C log2FC,"gene ITM2C (81618), apoptosis genes",0.019
same,log2FC KATNB1,"gene KATNB1 (Gene 10300), cell cycle genes",0.26
same,log2FC KCNA5,"gene KCNA5 (Gene 3741), cell cycle genes",-0.0139
same,KDR log2FC,"gene KDR (3791), apoptosis genes",-0.033
same,log2FC,"gene KIAA0101 (Gene 9768), cell cycle genes",0.28
same,KIAA1324 log2FC,"gene KIAA1324 (57535), apoptosis genes",-0.031
same,log2FC KIF2B,"gene KIF2B (Gene 84643), cell cycle genes",-0.17
same,log2FC,"gene KIF13A (Gene 63971), cell cycle genes",0.06
same,log2FC,"gene KIF23 (Gene 9493), cell cycle genes",0.55
same,log2FC KIF25,"gene KIF25 (Gene 3834), cell cycle genes",0.00228
same,KLF4 log2FC,"gene KLF4 (9314), apoptosis genes",-0.178
same,KRT20 log2FC,"gene KRT20 (54474), apoptosis genes",-0.013
same,LALBA log2FC,"gene LALBA (3906), apoptosis genes",-0.012
same,log2FC LATS1,"gene LATS1 (Gene 9113), cell cycle genes",0.0843
same,log2FC,"gene LATS2 (Gene 26524), cell cycle genes",0.38
same,LCMT1 log2FC,"gene LCMT1 (51451), apoptosis genes",0.003
same,LCN2 log2FC,"gene LCN2 (3934), apoptosis genes",0.063
same,log2FC,"gene LEMD3 (Gene 23592), cell cycle genes",0.29
same,LGALS1 log2FC,"gene LGALS1 (3956), apoptosis genes",0.053
same,LGALS12 log2FC,"gene LGALS12 (85329), apoptosis genes",0.050
same,LGALS14 log2FC,"gene LGALS14 (56891), apoptosis genes",0.104
same,log2FC,"gene LMNA (Gene 4000), cell cycle genes",-0.0134
same,LRP1 log2FC,"gene LRP1 (4035), apoptosis genes",0.043
same,log2FC,"gene LRP6 (Gene 4040), cell cycle genes",-0.12
same,log2FC,"gene LSM11 (Gene 134353), cell cycle genes",0.09
same,LTA log2FC,"gene LTA (4049), apoptosis genes",0.136
same,LTF log2FC,"gene LTF (4057), apoptosis genes",0.014
same,MAD2L1 log2FC,"gene MAD2L1 (4085), apoptosis genes",-0.145
same,MAEL log2FC,"gene MAEL (84944), apoptosis genes",-0.172
same,log2FC MAEL,"gene MAEL (Gene 84944), cell cycle genes",-0.17
same,MAGED1 log2FC,"gene MAGED1 (9500), apoptosis genes",-0.047
same,MAGEH1 log2FC,"gene MAGEH1 (28986), apoptosis genes",0.025
same,MAP2K5 log2FC,"gene MAP2K5 (5607), apoptosis genes",-0.018
same,MAP2K7 log2FC,"gene MAP2K7 (5609), apoptosis genes",0.032
same,log2FC,"gene MAP3K8 (Gene 1326), cell cycle genes",0.0265
same,log2FC,"gene MAP4 (Gene 4134), cell cycle genes",-0.23
same,MAPK1 log2FC,"gene MAPK1 (5594), apoptosis genes",0.017
same,log2FC,"gene MAPK4 (Gene 5596), cell cycle genes",-0.08
same,log2FC,"gene MAPK6 (Gene 5597), cell cycle genes",0.12
same,MAPK8 log2FC,"gene MAPK8 (5599), apoptosis genes",-0.015
same,MAPK9 log2FC,"gene MAPK9 (5601), apoptosis genes",-0.052
same,log2FC,"gene MAPK12 (Gene 6300), cell cycle genes",-0.18
same,MAPT log2FC,"gene MAPT (4137), apoptosis genes",0.031
same,log2FC MCM4,"gene MCM4 (Gene 4173), cell cycle genes",-0.12
same,MDM4 log2FC,"gene MDM4 (4194), apoptosis genes",-0.144
same,log2FC,"gene MED25 (Gene 81857), cell cycle genes",-0.19
same,MKL1 log2FC,"gene MKL1 (57591), apoptosis genes",0.300
same,MKNK1 log2FC,"gene MKNK1 (8569), apoptosis genes",0.102
same,MNDA log2FC,"gene MNDA (4332), apoptosis genes",0.077
same,MSX2 log2FC,"gene MSX2 (4488), apoptosis genes",0.052
same,MT3 log2FC,"gene MT3 (4504), apoptosis genes",-0.313
same,log2FC,"gene MYOG (Gene 4656), cell cycle genes",-0.13
same,NACA log2FC,"gene NACA (4666), apoptosis genes",0.038
same,log2FC NANOG,"gene NANOG (Gene 79923), cell cycle genes",-0.07
same,log2FC,"gene NASP (Gene 4678), cell cycle genes",0.16
same,NCF1 log2FC,"gene NCF1 (653361), apoptosis genes",0.093
same,NCF2 log2FC,"gene NCF2 (4688), apoptosis genes",-0.014
same,log2FC,"gene NCOR1 (Gene 9611), cell cycle genes",0.25
same,NDUFS3 log2FC,"gene NDUFS3 (4722), apoptosis genes",0.064
same,NEURL log2FC,"gene NEURL (9148), apoptosis genes",0.053
same,NEUROD1 log2FC,"gene NEUROD1 (4760), apoptosis genes",0.039
same,log2FC NEUROG1,"gene NEUROG1 (Gene 4762), cell cycle genes",-0.44
same,NLE1 log2FC,"gene NLE1 (54475), apoptosis genes",0.195
same,NME6 log2FC,"gene NME6 (10201), apoptosis genes",-0.015
same,log2FC NME6,"gene NME6 (Gene 10201), cell cycle genes",-0.0153
same,NOS1AP log2FC,"gene NOS1AP (9722), apoptosis genes",0.021
same,NOTCH1 log2FC,"gene NOTCH1 (4851), apoptosis genes",-0.008
same,NOX5 log2FC,"gene NOX5 (79400), apoptosis genes",0.00161
same,log2FC NOX5,"gene NOX5 (Gene 79400), cell cycle genes",0.00161
same,NTRK1 log2FC,"gene NTRK1 (4914), apoptosis genes",0.391
same,log2FC,"gene NUMA1 (Gene 4926), cell cycle genes",-0.09
same,log2FC,"gene NUP153 (Gene 9972), cell cycle genes",-0.34
same,log2FC NUP155,"gene NUP155 (Gene 9631), cell cycle genes",-0.14
same,log2FC,"gene NUP188 (Gene 23511), cell cycle genes",-0.16
same,NUPR1 log2FC,"gene NUPR1 (26471), apoptosis genes",0.072
same,OSR1 log2FC,"gene OSR1 (130497), apoptosis genes",-0.027
same,P4HB log2FC,"gene P4HB (5034), apoptosis genes",0.036
same,log2FC,"gene PA2G4 (Gene 5036), cell cycle genes",-0.51
same,PAFAH2 log2FC,"gene PAFAH2 (5051), apoptosis genes",-0.020
same,PAK6 log2FC,"gene PAK6 (56924), apoptosis genes",0.142
same,log2FC PAK6,"gene PAK6 (Gene 56924), cell cycle genes",0.14
same,log2FC,"gene PAPD5 (Gene 64282), cell cycle genes",0.31
same,PARK7 log2FC,"gene PARK7 (11315), apoptosis genes",0.018
same,PAX2 log2FC,"gene PAX2 (5076), apoptosis genes",0.009
same,log2FC PCNA,"gene PCNA (Gene 5111), cell cycle genes",-0.28
same,PCSK9 log2FC,"gene PCSK9 (255738), apoptosis genes",-0.221
same,log2FC PDCD2L,"gene PDCD2L (Gene 84306), cell cycle genes",-0.12
same,PDCD5 log2FC,"gene PDCD5 (9141), apoptosis genes",-0.049
same,PDCL3 log2FC,"gene PDCL3 (79031), apoptosis genes",-0.222
same,PDE1B log2FC,"gene PDE1B (5153), apoptosis genes",0.019
same,PDE3A log2FC,"gene PDE3A (5139), apoptosis genes",0.00129
same,log2FC PDE3A,"gene PDE3A (Gene 5139), cell cycle genes",0.00129
